Data as given in publication doi:10.1101/2020.07.01.182642v1 (biorxiv, 2020).

Assays:
Details in all cases: binder
[1] = target: ERN2 (Homo sapiens, UniProt Q76MJ5)
[2] = target: FGFR4 (Homo sapiens, UniProt P22455)
[3] = target: LIMK1 (Homo sapiens, UniProt P53667)
[4] = target: ABL2 (Homo sapiens, UniProt P42684)
[5] = target: ADRBK1 (Homo sapiens, UniProt P25098)
[6] = target: CAMK2D (Homo sapiens, UniProt Q13557)
[7] = target: CAMK2G (Homo sapiens, UniProt Q13555)
[8] = target: CAMK4 (Homo sapiens, UniProt Q16566)
[9] = target: CDKL3 (Homo sapiens, UniProt Q8IVW4)
[10] = target: FGR (Homo sapiens, UniProt P09769)
[11] = target: GRK5 (Homo sapiens, UniProt P34947)
[12] = target: ITK (Homo sapiens, UniProt Q08881)
[13] = target: LATS1 (Homo sapiens, UniProt O95835)
[14] = target: NEK9 (Homo sapiens, UniProt Q8TD19)
[15] = target: NLK (Homo sapiens, UniProt Q9UBE8)
[16] = target: PAK1 (Homo sapiens, UniProt Q13153)
[17] = target: PRKG2 (Homo sapiens, UniProt Q13237)
[18] = target: PRKX (Homo sapiens, UniProt P51817)
[19] = target: RIPK3 (Homo sapiens, UniProt Q9Y572)
[20] = target: SGK3 (Homo sapiens, UniProt Q96BR1)
[21] = target: TEC (Homo sapiens, UniProt P42680)
[22] = target: TLK1 (Homo sapiens, UniProt Q9UKI8)
[23] = target: VRK3 (Homo sapiens, UniProt Q8IV63)
[24] = target: BMPR1A (Homo sapiens, UniProt P36894)
[25] = target: CLK4 (Homo sapiens, UniProt Q9HAZ1)
[26] = target: CSNK1E (Homo sapiens, UniProt P49674)
[27] = target: CSNK1G2 (Homo sapiens, UniProt P78368)
[28] = target: DYRK1A (Homo sapiens, UniProt Q13627)
[29] = target: OXSR1 (Homo sapiens, UniProt O95747)
[30] = target: PIM1 (Homo sapiens, UniProt P11309)
[31] = target: PTK6 (Homo sapiens, UniProt Q13882)
Sequence of PTK6 (Q13882 whole entry): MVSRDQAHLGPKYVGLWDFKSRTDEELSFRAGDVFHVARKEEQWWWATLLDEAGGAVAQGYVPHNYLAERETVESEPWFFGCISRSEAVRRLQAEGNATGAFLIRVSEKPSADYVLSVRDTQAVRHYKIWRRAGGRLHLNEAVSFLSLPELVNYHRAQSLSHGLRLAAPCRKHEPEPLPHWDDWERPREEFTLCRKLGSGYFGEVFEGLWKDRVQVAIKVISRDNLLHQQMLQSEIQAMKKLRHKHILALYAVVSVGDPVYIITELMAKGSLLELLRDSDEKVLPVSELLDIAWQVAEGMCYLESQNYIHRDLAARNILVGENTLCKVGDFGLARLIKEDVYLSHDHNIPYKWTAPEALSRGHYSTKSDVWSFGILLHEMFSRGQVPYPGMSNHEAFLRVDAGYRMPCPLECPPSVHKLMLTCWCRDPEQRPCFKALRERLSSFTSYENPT

Sequence of FGR (P09769 whole entry): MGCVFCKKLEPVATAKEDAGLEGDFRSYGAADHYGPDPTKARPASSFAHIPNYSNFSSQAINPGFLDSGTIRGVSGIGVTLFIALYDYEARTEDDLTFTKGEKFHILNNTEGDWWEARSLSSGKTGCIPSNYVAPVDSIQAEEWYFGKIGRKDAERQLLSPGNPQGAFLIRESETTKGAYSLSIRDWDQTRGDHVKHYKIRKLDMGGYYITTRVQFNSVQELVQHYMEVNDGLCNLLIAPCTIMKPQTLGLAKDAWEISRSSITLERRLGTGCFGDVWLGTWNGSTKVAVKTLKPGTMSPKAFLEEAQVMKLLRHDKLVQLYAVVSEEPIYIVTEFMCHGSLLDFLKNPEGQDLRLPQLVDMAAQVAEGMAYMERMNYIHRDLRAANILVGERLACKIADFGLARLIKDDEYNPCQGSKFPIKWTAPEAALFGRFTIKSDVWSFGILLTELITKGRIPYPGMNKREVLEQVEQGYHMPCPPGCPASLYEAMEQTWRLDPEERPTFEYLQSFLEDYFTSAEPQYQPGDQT
Sequence of ERN2 (Q76MJ5 whole entry): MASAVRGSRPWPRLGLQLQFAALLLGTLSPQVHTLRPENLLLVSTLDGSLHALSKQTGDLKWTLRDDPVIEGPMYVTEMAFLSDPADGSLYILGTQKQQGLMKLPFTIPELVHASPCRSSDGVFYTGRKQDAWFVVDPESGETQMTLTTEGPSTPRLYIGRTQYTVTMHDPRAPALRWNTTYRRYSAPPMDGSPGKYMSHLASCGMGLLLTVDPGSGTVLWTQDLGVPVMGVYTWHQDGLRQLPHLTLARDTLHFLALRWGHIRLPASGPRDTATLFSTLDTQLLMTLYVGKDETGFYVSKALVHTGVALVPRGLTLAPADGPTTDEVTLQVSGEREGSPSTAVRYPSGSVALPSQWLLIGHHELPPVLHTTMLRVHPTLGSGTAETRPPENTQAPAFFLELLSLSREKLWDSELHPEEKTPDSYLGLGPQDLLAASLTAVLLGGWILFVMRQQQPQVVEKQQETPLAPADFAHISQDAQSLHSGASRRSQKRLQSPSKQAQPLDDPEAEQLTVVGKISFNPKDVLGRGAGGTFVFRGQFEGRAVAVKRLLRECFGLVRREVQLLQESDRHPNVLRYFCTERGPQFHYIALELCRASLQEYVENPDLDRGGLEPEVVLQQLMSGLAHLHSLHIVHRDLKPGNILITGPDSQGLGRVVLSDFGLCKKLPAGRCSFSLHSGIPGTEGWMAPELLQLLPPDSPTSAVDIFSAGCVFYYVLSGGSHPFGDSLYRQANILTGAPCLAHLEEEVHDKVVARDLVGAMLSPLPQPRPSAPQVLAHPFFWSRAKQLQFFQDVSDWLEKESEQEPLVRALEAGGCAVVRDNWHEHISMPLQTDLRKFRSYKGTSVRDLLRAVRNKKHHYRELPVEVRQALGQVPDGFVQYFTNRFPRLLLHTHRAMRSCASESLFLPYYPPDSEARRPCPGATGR
Sequence of LIMK1 (P53667 whole entry): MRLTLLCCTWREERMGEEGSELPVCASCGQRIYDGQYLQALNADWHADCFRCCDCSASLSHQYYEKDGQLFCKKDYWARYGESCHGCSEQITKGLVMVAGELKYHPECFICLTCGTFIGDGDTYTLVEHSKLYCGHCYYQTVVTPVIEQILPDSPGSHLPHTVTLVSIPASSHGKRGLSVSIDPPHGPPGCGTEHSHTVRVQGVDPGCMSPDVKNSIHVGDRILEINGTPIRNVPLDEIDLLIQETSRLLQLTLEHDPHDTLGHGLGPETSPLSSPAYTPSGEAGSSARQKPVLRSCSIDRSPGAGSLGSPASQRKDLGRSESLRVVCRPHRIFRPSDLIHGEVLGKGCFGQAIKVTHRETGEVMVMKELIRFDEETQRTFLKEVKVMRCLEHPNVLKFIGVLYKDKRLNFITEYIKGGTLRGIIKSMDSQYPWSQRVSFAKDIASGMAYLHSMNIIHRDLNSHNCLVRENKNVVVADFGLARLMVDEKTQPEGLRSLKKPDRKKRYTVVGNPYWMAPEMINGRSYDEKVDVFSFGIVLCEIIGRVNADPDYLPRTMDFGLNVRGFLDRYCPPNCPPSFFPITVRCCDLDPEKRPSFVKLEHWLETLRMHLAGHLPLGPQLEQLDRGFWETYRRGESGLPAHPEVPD
Sequence of TLK1 (Q9UKI8 whole entry): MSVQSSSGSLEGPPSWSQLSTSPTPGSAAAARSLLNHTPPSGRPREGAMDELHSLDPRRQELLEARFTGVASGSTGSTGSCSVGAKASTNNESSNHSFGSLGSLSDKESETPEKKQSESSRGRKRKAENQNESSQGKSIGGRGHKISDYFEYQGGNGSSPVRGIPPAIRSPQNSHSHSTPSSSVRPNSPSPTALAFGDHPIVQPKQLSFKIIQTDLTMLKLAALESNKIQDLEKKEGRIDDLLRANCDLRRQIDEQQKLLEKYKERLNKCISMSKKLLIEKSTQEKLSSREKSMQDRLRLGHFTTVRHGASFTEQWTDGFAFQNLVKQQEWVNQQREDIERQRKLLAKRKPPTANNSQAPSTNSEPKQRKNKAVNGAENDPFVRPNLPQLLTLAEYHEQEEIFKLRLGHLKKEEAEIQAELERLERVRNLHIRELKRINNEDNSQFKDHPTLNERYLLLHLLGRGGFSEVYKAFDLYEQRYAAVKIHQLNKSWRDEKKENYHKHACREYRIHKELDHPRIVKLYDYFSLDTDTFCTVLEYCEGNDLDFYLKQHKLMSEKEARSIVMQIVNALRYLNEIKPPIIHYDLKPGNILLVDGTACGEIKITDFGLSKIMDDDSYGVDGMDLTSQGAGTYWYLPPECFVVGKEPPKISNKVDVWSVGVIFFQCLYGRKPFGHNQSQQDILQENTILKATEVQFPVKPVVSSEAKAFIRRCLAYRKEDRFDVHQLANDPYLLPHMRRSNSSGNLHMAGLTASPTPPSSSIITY
Sequence of CAMK4 (Q16566 whole entry): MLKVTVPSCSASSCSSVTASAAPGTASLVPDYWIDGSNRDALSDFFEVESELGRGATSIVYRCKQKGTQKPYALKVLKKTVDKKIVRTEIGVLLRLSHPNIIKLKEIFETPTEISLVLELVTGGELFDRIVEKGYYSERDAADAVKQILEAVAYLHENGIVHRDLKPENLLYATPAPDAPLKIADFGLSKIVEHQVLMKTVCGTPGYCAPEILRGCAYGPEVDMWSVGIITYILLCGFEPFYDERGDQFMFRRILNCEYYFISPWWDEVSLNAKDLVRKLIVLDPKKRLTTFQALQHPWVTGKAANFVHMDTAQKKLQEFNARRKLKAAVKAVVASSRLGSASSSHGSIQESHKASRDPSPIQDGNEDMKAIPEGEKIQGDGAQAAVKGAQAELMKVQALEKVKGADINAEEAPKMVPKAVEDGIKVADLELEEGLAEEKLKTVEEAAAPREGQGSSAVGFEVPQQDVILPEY
Sequence of RIPK3 (Q9Y572 whole entry): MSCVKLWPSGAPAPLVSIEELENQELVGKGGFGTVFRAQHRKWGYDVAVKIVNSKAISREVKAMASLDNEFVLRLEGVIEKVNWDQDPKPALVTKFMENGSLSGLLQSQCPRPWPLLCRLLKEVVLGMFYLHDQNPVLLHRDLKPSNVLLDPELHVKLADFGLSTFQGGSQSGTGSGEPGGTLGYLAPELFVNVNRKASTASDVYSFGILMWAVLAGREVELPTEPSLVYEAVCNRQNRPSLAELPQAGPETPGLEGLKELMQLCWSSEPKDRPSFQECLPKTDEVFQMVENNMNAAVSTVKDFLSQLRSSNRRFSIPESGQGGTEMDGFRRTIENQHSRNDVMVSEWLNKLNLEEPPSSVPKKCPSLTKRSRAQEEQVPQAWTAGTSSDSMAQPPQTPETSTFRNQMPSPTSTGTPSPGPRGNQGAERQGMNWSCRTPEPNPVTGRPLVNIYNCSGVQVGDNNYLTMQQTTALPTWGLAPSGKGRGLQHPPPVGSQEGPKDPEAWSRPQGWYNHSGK
Sequence of ITK (Q08881 whole entry): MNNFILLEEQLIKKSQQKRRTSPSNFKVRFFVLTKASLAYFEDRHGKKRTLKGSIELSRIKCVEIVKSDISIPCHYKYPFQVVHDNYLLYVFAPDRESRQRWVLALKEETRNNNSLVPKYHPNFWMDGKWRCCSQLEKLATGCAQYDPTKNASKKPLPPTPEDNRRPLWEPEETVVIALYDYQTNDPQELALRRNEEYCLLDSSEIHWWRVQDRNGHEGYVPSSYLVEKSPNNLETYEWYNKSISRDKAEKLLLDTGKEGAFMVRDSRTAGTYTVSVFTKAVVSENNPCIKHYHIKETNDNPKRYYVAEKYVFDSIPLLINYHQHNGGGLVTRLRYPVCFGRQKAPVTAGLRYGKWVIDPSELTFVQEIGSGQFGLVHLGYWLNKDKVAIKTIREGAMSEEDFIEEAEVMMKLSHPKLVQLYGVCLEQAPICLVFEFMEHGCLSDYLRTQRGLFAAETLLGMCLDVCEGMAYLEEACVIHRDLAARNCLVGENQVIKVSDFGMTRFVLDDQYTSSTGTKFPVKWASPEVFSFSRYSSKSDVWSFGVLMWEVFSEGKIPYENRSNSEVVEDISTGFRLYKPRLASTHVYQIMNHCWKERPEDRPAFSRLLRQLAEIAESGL

SMILES: Nc1nccc(-c2ccc3noc(-c4ccc(Cl)cc4)c3c2)n1 [compound 4, K00972]
- ΔTm inhibitor 4 [1]: 0.4 °C
- ΔTm inhibitor 4 [2]: 0.2 °C
- ΔTm inhibitor 4 [3]: 0.5 °C

SMILES: CCN1/C(=C/C(C)=O)Sc2ccc(OC)cc21 [compound 2, TG003]
- ΔTm inhibitor 2 [4]: -0.5 °C
- ΔTm inhibitor 2 [5]: 0.1 °C
- ΔTm inhibitor 2 [6]: -0.6 °C
- ΔTm inhibitor 2 [7]: 0.1 °C
- ΔTm inhibitor 2 [8]: -0.2 °C
- ΔTm inhibitor 2 [9]: 0.1 °C
- ΔTm inhibitor 2 [10]: -0.2 °C
- ΔTm inhibitor 2 [11]: 0.8 °C
- ΔTm inhibitor 2 [12]: 1.1 °C
- ΔTm inhibitor 2 [13]: 0.1 °C
- ΔTm inhibitor 2 [14]: 0.5 °C
- ΔTm inhibitor 2 [15]: -0.2 °C
- ΔTm inhibitor 2 [16]: 0.0 °C
- ΔTm inhibitor 2 [17]: -0.1 °C
- ΔTm inhibitor 2 [18]: -0.2 °C
- ΔTm inhibitor 2 [19]: -0.6 °C
- ΔTm inhibitor 2 [20]: -0.1 °C
- ΔTm inhibitor 2 [21]: 1.0 °C
- ΔTm inhibitor 2 [22]: -0.1 °C
- ΔTm inhibitor 2 [23]: 0.5 °C

SMILES: CC(=O)c1cccc(-c2cnc3ccc(NCC4CC4)nn23)c1 [compound 1, K00135]
- ΔTm inhibitor 1 [24]: 10.9 °C
- ΔTm inhibitor 1 [25]: 8.5 °C
- ΔTm inhibitor 1 [26]: 4.4 °C
- ΔTm inhibitor 1 [27]: 2.5 °C
- ΔTm inhibitor 1 [28]: 3.6 °C
- ΔTm inhibitor 1 [29]: 0.5 °C
- ΔTm inhibitor 1 [30]: 6.3 °C
- ΔTm inhibitor 1 [31]: 0.4 °C
